In patent US20240269302A1, “NANOPARTICLE COMPRISING PEPTIDE-LIPID CONJUGATE FOR DELIVERING OLIGONUCLEOTIDE INTO TARGET CELL AND PHARMACEUTICAL COMPOSITION COMPRISING SAME” (NIBEC CO., LTD., priority 2021, published 2024):

Tested on: KRAS mRNA
Assay: Reduction of KRAS mRNA by KRAS siRNA delivered into cells, quantitative real-time PCR
Format: cell-based, human
Settings: H358 cells, 100 nM, 16 hours, qRT-PCR, 18S rRNA as housekeeping gene
Experimental: H358 cells were seeded at a density of 70% in a 6-well plate. After 16 hours, cell starvation was performed overnight with DMEM containing 0.5% FBS. The cells were treated with a medium containing nanoparticles comprising KRAS siRNA and a peptide-lipid conjugate at a concentration of 100 nM for 16 hours. As a control, 100 nM of siRNA mixed with Lipofectamine was used.
Quantitative real-time PCR was performed in the following manner. For mRNA quantification, total RNA was isolated using the Qiagen RNeasy kit. cDNA was synthesized using Verso cDNA kit (Thermo Scientific) using 500 ng RNA. mRNA values were measured with a 7500 Fast Real-Time PCR System (Applied Biosystems) based on SYBR Green.
18S rRNA was used as a housekeeping gene (control gene). PCR was performed using reverse-transcribed RNA and 100 ng/μL of sense and antisense primers (total volume 20 μL) were used. 40 cycles were performed and each cycle included denaturation at 95° ° C. for 15 seconds, annealing for 1 minute, and extension at 60° ° C.

Q: For “siRNA alone: siRNA that inhibits the expression of KRAS (SEQ ID NO: 19 sense, SEQ ID NO: 20 antisense), without carrier (sense CAGCUAAUUCAGAAUCAUU; antisense AAUGAUUCUGAAUUAGCUG; listed as RNA, chemistry not given here)”, which “KRAS mRNA” value is on record?
A: The value was “no effect”.
